Two compounds from article PMC9919861, “Homoleptic Complexes of Heterocyclic Curcuminoids with Mg(II) and Cu(II): First Conformationally Heteroleptic Case, Crystal Structures, and Biological Properties” (Molecules, 2023) can be followed below.

Series [1] has as its system lipid peroxidation in rat brain homogenate. Put plainly: Inhibition of lipid peroxidation (TBARS) in rat brain homogenate, FeSO4-induced. The series is classed as biochemical. As for the experimental part:
Adult male Wistar rats (200–250 g) were provided by the Instituto de Fisiología Celular, Universidad Nacional Autónoma de México (UNAM). The procedures and care of animals were conducted in conformity with the Mexican Official Norm for Animal Care and Handling NOM-062-ZOO-1999. They were maintained at 23 ± 2 °C on a 12/12 h light-dark cycle with ad libitum access to food and water.
Animal sacrifice was carried out avoiding unnecessary pain. The rats were sacrificed with CO2. The cerebral tissue (whole brain) was rapidly dissected and homogenized in phosphate-buffered saline (PBS) solution (0.2 g of KCl, 0.2 g of KH2PO4, 8 g of NaCl, and 2.16 g of NaHPO4.7H2O/L, pH adjusted to 7.4) as described elsewhere to produce a 1/10 (w/v) homogenate. The homogenate was centrifuged at 800 rcf (relative centrifugal field) for 10 min. The supernatant protein content was measured using Folin and Ciocalteu’s phenol reagent and adjusted with PBS at 2.666 mg of protein/mL.
As an index of lipid peroxidation, TBARS levels were measured using rat brain homogenates according to the method described by Ng and co-workers, with some modifications. A supernatant (375 µL) was added with 50 µL of 20 µM EDTA and 25 µL of each sample concentration dissolved in DMSO (25 µL of DMSO for the control group) and incubated at 37 °C for 30 min. The lipid peroxidation was started adding 50 µL of freshly prepared 100 µM FeSO4 solution (final concentration 10 µM) and incubated at 37 °C for 1h. The TBARS measurements were obtained as described by Ohkawa and co-workers, with some modifications. To each tube 500 µL of TBA reagent (0.5% 2-thiobarbituric acid in 0.05 N NaOH and 30% trichloroacetic acid, in 1:1 ratio) was added and the final suspension was cooled on ice for 10 min, centrifuged at 13,400 rcf for 5 min and heated at 80 °C in a water bath for 30 min. After cooling at room temperature, the absorbance of 200 µL of supernatant was measured at λ = 540 nm in a Microplate Reader Synergy/HT BIOTEK Instrument, Inc., Winooski, VT, USA. The concentration of TBARS was calculated by interpolation on a standard curve of tetra-methoxypropane (TMP) as a precursor of MDA [38]. Results are expressed as n moles of TBARS per mg of protein. The inhibition ratio (IR [%]) was calculated using the formula IR = (C − E) × 100/C, where C is the control absorbance and E is the sample absorbance. Butylated hydroxytoluene (BHT) and α tocopherol were used as positive standards. All data are presented as mean ± standard error (SEM). The data were analyzed by one-way analysis of variance (ANOVA) followed by Dunnett’s test for comparison against a control. Values of p ≤ 0.05 (*) and p ≤ 0.01 (**) were considered statistically significant.

Series [2] relates to HCT-15 (human colon adenocarcinoma). Kind of series: Cytotoxicity, sulforhodamine B (SRB) microculture assay. The series is classed as cell-based. As to conditions: Homo sapiens; for inhibition at 25 µM: read-out: % of Inhibition (cytotoxic screening). As for the experimental part:
(§1) The cytotoxicity of all compounds was tested against six cancer cell lines: U251 (human glioblastoma cell line), PC-3 (human prostate adenocarcinoma), K562 (human chronic myelogenous leukemia), HCT-15 (human colon adenocarcinoma), MCF-7 (human mammary adenocarcinoma), and SKLU-1 (human lung adenocarcinoma). Cell lines were supplied by the U.S. National Cancer Institute (NCI). The cell lines were cultured in an RPMI-1640 medium supplemented with 10% fetal bovine serum, […] L-glutamine, 10,000 units/mL penicillin G sodium, 10,000 µg/mL streptomycin sulfate, 25 µg/mL amphotericin B (Invitrogen/Gibco™, Thermo Fisher Scientific, Waltham, MA, USA), and 1% non-essential amino acids (Gibco). They were maintained at 37 °C in a humidified atmosphere with 5% CO2. […] The human tumor cytotoxicity was determined using the protein-binding dye sulforhodamine B (SRB) in a microculture assay to measure cell growth, as described in the protocols established by the NCI [39, 40, 41].

The test system of series [3] is K562 (human chronic myelogenous leukemia). Described as above. As to conditions: Homo sapiens; for inhibition at 25 µM: read-out: % of Inhibition (cytotoxic screening). The series is classed as cell-based. As for the experimental part:
as §1

Series [4] has as its system MCF-7 (human mammary adenocarcinoma). The description is as above. The series is classed as cell-based. As to conditions: Homo sapiens; for inhibition at 25 µM: MCF7, 25 μM, read-out: % of Inhibition (cytotoxic screening). As for the experimental part:
as §1

The subject of series [5] is PC-3 (human prostate adenocarcinoma). Described as above. The series is classed as cell-based. The note with it: Homo sapiens; for inhibition at 25 µM: read-out: % of Inhibition (cytotoxic screening). Here is the method: as §1
Series [6] deals with SKLU-1 (human lung adenocarcinoma). Described as above. The series is classed as cell-based. The note with it: Homo sapiens; for IC50: SK-LU-1; for inhibition at 25 µM: SK-LU-1, 25 μM, read-out: % of Inhibition (cytotoxic screening). Here is the method: as §1
Series [7] deals with U251 (human glioblastoma cell line). Described as above. The series is classed as cell-based. The note with it: Homo sapiens; for IC50: U-251; for inhibition at 25 µM: U-251, 25 μM, read-out: % of Inhibition (cytotoxic screening). Here is the method: as §1
Series [8] can be described thus: Cytotoxicity towards healthy cell line. The series is classed as cell-based, monkey. As to conditions: monkey, COS-7 kidney cells; COS7; 25 μM; read-out: % of Inhibition (cytotoxic screening).
Setting [9] is: concentration 1 (unit not given).
Setting [10] is: concentration 10 (unit not given).
Setting [11] is: concentration 100 (unit not given).

`Cn1cccc1/C=C/C(=O)/C=C(O)/C=C/c1cccn1C` [N-methyl-pyrCurc, N-methylpyrrolcurcumin]: the “% of Inhibition (lipoperoxidation screening)” value in series [1] (setting [9]) came out at 13.71%; in series [1] (setting [10]), 17.41%; in series [1] (setting [11]), 84.75%. In addition, the IC50 – broadly, the point on the concentration scale where inhibition reaches its midpoint – is 22.4 ± 2.4 µM in series [2]; 12.9 ± 1 µM in series [3]; 27.3 ± 4.3 µM in series [4] (MCF7); 13 ± 1.9 µM in series [6]; 25.8 ± 2.7 µM in series [7]. In addition, the inhibition (usually the change of the read-out against control, counted positive when it falls) at 25 µM in series [2] turned out to be 18.1%; in series [3] it was 65.8%; in series [4], 99.9%; in series [5], 60.4%; in series [6], 100%; in series [7], 52.8%. Moreover, in series [8], the inhibition at 25 µM came to 100%.
On to `O=C(/C=C(O)/C=C/c1ccco1)/C=C/c1ccco1` [FuranCurc, Furancurcumin], for which the “Inhibition (%) of lipid peroxidation” value in series [1] (13.34 μM, mean ± SEM, n = 3) was 5.6 ± 5.31%; in series [1] (17.78 μM, mean ± SEM, n = 3), 13.14 ± 5.84%; in series [1] (23.71 μM, mean ± SEM, n = 3) it was 25.93 ± 9.98%; in series [1] (31.62 μM, mean ± SEM, n = 3), 48.97 ± 13.11%; in series [1] (42.17 μM, mean ± SEM, n = 3), 64.24 ± 10.44%; in series [1] (56.23 μM, mean ± SEM, n = 3) it was 81.06 ± 1.43%. Besides, the “Inhibition (%) of lipid peroxidation” value in series [1] (74.13 μM, mean ± SEM, n = 3) came out at 88.25 ± 1.57%. The TBARS in series [1] (13.34 μM, mean ± SEM, n = 3) was determined as 9.385 ± 0.416 nmol/mg prot; in series [1] (17.78 μM, mean ± SEM, n = 3) it was 8.634 ± 0.462 nmol/mg prot; in series [1] (23.71 μM, mean ± SEM, n = 3), 7.356 ± 0.928 nmol/mg prot; in series [1] (31.62 μM, mean ± SEM, n = 3) it was 5.091 ± 1.356 nmol/mg prot; in series [1] (42.17 μM, mean ± SEM, n = 3), 3.590±1.114 nmol/mg prot; in series [1] (56.23 μM, mean ± SEM, n = 3), 1.891±0.178 nmol/mg prot. For the same compound, in series [1] (74.13 μM, mean ± SEM, n = 3), the TBARS was determined as 1.167±0.148 nmol/mg prot. Moreover, the “% of Inhibition (lipoperoxidation screening)” value is −6.24% in series [1] (setting [9]), 1.59% in series [1] (setting [10]) and 93.46% in series [1] (setting [11]). For the same compound, the IC50 came out at 33.9 ± 4.65 µM in series [1] (rat brain homogenate, TBARS, mean ± SEM, n = 3); 35.9 ± 3.9 µM in series [5]; 15.5 ± 2 µM in series [6]; 11.7 ± 2.9 µM in series [7]. Besides, the inhibition at 25 µM in series [2] came out at 0%; in series [3], 6.4%; in series [4], 0%; in series [5] it was 10.8%; in series [6] it was 0%; in series [7] it was 0%. In addition, in series [8], the inhibition at 25 µM turned out to be 46.2%.
